Reference: US20260263563A1, “Method of Treatment of a Thoracolumbar Deformity in a Human Subject with Achondroplasia” (Ascendis Pharma Growth Disorders A/S, priority 2023, published 2026)
Read-outs that look alike come from different tables or passages of the source.

Assays:
[1] = tested on: prepubertal children with achondroplasia
Experimental: (§1) The study enrolled a minimum of 60 male and female prepubertal children with ACH aged 2 to 10 years old. The clinical trial is listed on www.clinicaltrials.gov under the ClinicalTrials.gov Identifier: NCT04085523. The objectives of the study were as follow:
(§2) This trial is a multicenter trial consisting of two treatment periods.
Participants should rest for at least 5 minutes before vital sign measurement and vital signs should be taken prior to any blood draws. The following vital signs should be measured: • Heart Rate (measured in beats per minute) • Blood Pressure (seated BP will be taken measured in mm Hg) • Temperature [measured in degrees Celsius (° C.) or Fahrenheit (° F.)]
All vital signs above must be measured at all visits. […] Orthostatic hypotension is defined as decrease in SBP of ≥20 mmHg (Stewart et al., Pediatrics, 141, 1-13, 2018). Accompanying tachycardia is defined as change of heart rate increment of ≥40 bpm and absolute orthostatic HR≥130 bpm (for ages 13 years and younger) (Singer et al., Journal of Pediatrics, 160, 222-226, 2012). Additionally, at Visit 1 and Visit 7 (in the Open-Label Extension Period), all vital signs must be monitored at 1 hour and 2 hours post injection of the study drug.

[2] = tested on: prepubertal children with achondroplasia; settings: for AGV: 100 μg CNP-38/kg/week group
Experimental: as §1, §2
Height of subjects enrolled in the study of Example 3 was measured using a wall-mounted stadiometer. The same equipment was used at all visits for the same child. All instruments were calibrated as required by local requirements or per instrument manufacturer guidance prior to use.

Fgfr3^Y367C/+ mice = tested on: Fgfr3^Y367C/+ mice
Excerpt: The Y367C mutation was introduced into exon 9 of the mouse Fgfr3 gene along with a NEO cassette flanked by LoxP recombination sites. Due to the CMV promoter, the expression of the Fgfr3 Fgfr3^Y367C/+ is ubiquitous. Off-spring consisted of both Fgfr3^Y367C/+ and Fgfr3+/+ wild-type (WT) littermates.
Survival of pups was monitored daily during the 15 days of treatment and registered in treatment diaries.

[3] = tested on: binding antibodies against CNP-38 (and CNP-22)
Experimental: All subjects in the trial are being monitored for binding and, if relevant, neutralizing antibodies to CNP. […] Samples are collected in all subjects at screening visit, prior to initial dose, and post-dose at 1, 3, 6, 9 months+every 3 months for the duration of the study. Samples are analyzed using a fully validated anti-CNP antibody assay.
Prior to analysis of clinical samples, the assay was fully validated following regulatory requirements from both EMAA and FDA. In this approach, biotinylated and ruthenylated CNP-38 were prepared as a master mix. Samples were incubated at minimum required dilution (MRD) in the master mix to form complex and then plated on an MSD streptavidin plate where the biotinylated CNP-38 could also bind. The samples were then detected by the ruthenium labelled CNP-38 within the bound complexes, using an MSD 5600 plate reader. The presence of anti-drug antibody present was determined by comparing the signal to a statistically derived threshold, the assay cut point.

[4] = tested on: prepubertal children with achondroplasia; settings: 50 and 100 μg/kg vs placebo, 52 weeks
Experimental: In the phase 2 study reported in Example 4, X-rays of the hand were taken at the placebo group (6 patients assessed), cohort 3, 50 μg/kg (9 patients assessed) and cohort 4, 100 μg/kg (7 patients assessed) and the Hand Metacarpal/Phalangeal Profile (MCPP) was assessed.

[5] = 57 patients followed for up to 65 weeks
[6] = more than 2,000 injections administered

Substance: Navepegritide [Compound (1)]
- Treatment-Related TEAE ([1]; 100 μg/kg/week (n = 11)): 2 (18.2)
- Treatment-related: Abdominal pain upper ([1]; 100 μg/kg/week (n = 11)): 0
- Treatment-related: Dizziness ([1]; 100 μg/kg/week (n = 11)): 0
- Treatment-related: Injection site reaction ([1]; 100 μg/kg/week (n = 11)): 2 (18.2)
- Treatment-related: Overdose ([1]; 100 μg/kg/week (n = 11)): 0
- Treatment-related: Sleep terror ([1]; 100 μg/kg/week (n = 11)): 0
- Treatment-related: Urticaria ([1]; 100 μg/kg/week (n = 11)): 0
- reporting of achondroplasia related treatment emergent adverse events ([1]; 100 μg/kg/week dose group, 60% in the placebo group): 9.1%
- AEs on orthostatism [1, 5]: no AEs reported on orthostatism
- serious adverse events related to the trial drug [1, 5]: no serious adverse events related to the trial drug
- withdrawals or discontinuations from the trial [1, 5]: no withdrawals or discontinuations
- total AEs related to trial drug or procedures ([1]; 57 patients, more than 1900 injections): 13
- severity of ISRs ([1]; all ISRs): mild
- injection site reactions ([1]; among more than 1900 injections): 8
- number of injection site reactions (ISRs) [1, 6]: 11
- number of patients with ISRs [1, 6]: 8
- tolerability of injections ([1]; weekly s.c. injections): well tolerated with a low frequency of injection site reactions
- AGV, LS Mean ([2]; 6 μg/kg/week, 52 weeks, n = 10, 95% CI [3.34, 4.84], p 0.6004 vs pooled placebo (4.35)): 4.09, n = 10 cm/year
- Δ Height SDS (ACH-specific height SDS), LS Mean ([2]; 6 μg/kg/week, n = 10, 95% CI [−0.26, 0.17], p 0.8207 vs pooled placebo (−0.08)): −0.04, n = 10
- AGV, LS Mean ([2]; 20 μg/kg/week, 52 weeks, n = 11, 95% CI [3.82, 5.22], p 0.7022 vs pooled placebo): 4.52, n = 11 cm/year
- Δ Height SDS (ACH-specific height SDS), LS Mean ([2]; 20 μg/kg/week, n = 11, 95% CI [−0.17, 0.23], p 0.4107 vs pooled placebo): 0.03, n = 11
- AGV, LS Mean ([2]; 50 μg/kg/week, 52 weeks, n = 10, 95% CI [4.43, 5.90], p 0.0849 vs pooled placebo): 5.16, n = 10 cm/year
- Δ Height SDS (ACH-specific height SDS), LS Mean ([2]; 50 μg/kg/week, n = 10, 95% CI [−0.10, 0.32], p 0.1660 vs pooled placebo): 0.11, n = 10
- AGV ([2]; 0 to 6 months): 5.167 cm/year
- AGV ([2]; time period 6 to 12 months): 5.696 cm/year
- AGV, LS Mean ([2]; 100 μg/kg/week, 52 weeks, n = 11, 95% CI [4.74, 6.11], p 0.0218 vs pooled placebo): 5.42, n = 11 cm/year
- AGV, LS Mean ([2]; 100 μg/kg/week, 52 weeks, n = 11, 95% CI [4.74, 6.11], p 0.0218 vs pooled placebo, listed as compound (1)): 5.42 cm/year
- Δ Height SDS (ACH-specific height SDS), LS Mean ([2]; 100 μg/kg/week, n = 11, 95% CI [0.02, 0.41], p 0.0283 vs pooled placebo): 0.22, n = 11
- growth in Open Label Extension ([2]; 46 children switched from placebo or lower dose to 100 μg/kg/week, after one year): improved growth
- AGV, LS Mean ([2]; Age < 5 years old, 6 μg/kg/week, n = 3, 95% CI [2.52, 6.10]): 4.31, n = 3 cm/year
- AGV, LS Mean ([2]; Age < 5 years old, 20 μg/kg/week, n = 5, 95% CI [3.30, 6.15]): 4.72, n = 5 cm/year
- AGV, LS Mean ([2]; Age < 5 years old, 50 μg/kg/week, n = 5, 95% CI [3.62, 6.52]): 5.07, n = 5 cm/year
- AGV, LS Mean ([2]; Age < 5 years old, 100 μg/kg/week, n = 3, 95% CI [4.03, 7.87]): 5.95, n = 3 cm/year
- AGV, LS Mean ([2]; Age ≥ 5 years old, 6 μg/kg/week, n = 7, 95% CI [2.87, 4.71]): 3.79, n = 7 cm/year
- AGV, LS Mean ([2]; Age ≥ 5 years old, 20 μg/kg/week, n = 6, 95% CI [3.43, 5.15]): 4.29, n = 6 cm/year
- AGV, LS Mean ([2]; Age ≥ 5 years old, 50 μg/kg/week, n = 5, 95% CI [4.39, 6.26]): 5.33, n = 5 cm/year
- AGV, LS Mean ([2]; Age ≥ 5 years old, 100 μg/kg/week, n = 8, 95% CI [4.35, 5.90]): 5.12, n = 8 cm/year
- tolerability, adverse clinical signs (Fgfr3^Y367C/+ mice; Fgfr3^Y367C/+ pups, 15 days of treatment): well tolerated, and no adverse clinical signs were observed
- Number of mice surviving to day 15 (Fgfr3^Y367C/+ mice; Fgfr3^Y367C/+ pups, 5.6 mg/kg/day s.c., 15 days from day 1 after birth, 14 mice included): 12
- Number of mice surviving to day 15 (Fgfr3^Y367C/+ mice; Fgfr3^Y367C/+ pups, […] third day s.c., 13 mice included): 11
- survival of pups compared with untreated pups (Fgfr3^Y367C/+ mice; either dose level, P<0.05, Log-rank (Mantel-Cox) test, untreated = vehicle treated and historic survival combined): significantly improved survival
- registered incidence of maternal infanticide (Fgfr3^Y367C/+ mice; treated groups): marked reduction
- anti-CNP binding antibodies ([3]; 1 to 9 months of repeated weekly exposure): No anti-CNP binding antibodies have been detected
- treatment emergent anti-CNP antibodies [3, 5]: no treatment emergent anti-CNP antibodies were detected
- post-dose samples, anti-CNP antibodies ([3]; samples at 1, 3, 6, 9 months + every 3 months): confirmed negative
- hand length [4]: clear trend for dose dependent increase
